# According to ChEMBL document CHEMBL5357055, “Protoilludane-Type and Related Nor-Sesquiterpenes from Phellinus hartigii and Their Anti-Hypertrophic Activities in Rat Cardiomyocytes” (J Nat Prod, 2024):
# The source made the active and inactive calls. No cut-off for these calls is given here.
# Experiments:
# NRCM [1] = assay: Anticardiac hypertrophic activity in phenylephrine-induced hypertrophy in Sprague-Dawley rat NRCM cells assessed as reduction in NPPA mRNA expression level at 50 uM preincubated for 12 hrs followed by phenylephrine stimulation and measured after 48 hrs by qRT-PCR analysis; assay type: functional, cell-based; conditions: time 60.0 hrs
# NRCM [2] = assay: Anticardiac hypertrophic activity in phenylephrine-induced hypertrophy in Sprague-Dawley rat NRCM cells assessed as reduction in inhibition of ANP level at 50 uM preincubated for 12 hrs followed by phenylephrine stimulation and measured after 48 hrs by Westernblot analysis; assay type: functional, cell-based; conditions: time 60.0 hrs
# NRCM [3] = assay: Anticardiac hypertrophic activity in phenylephrine-induced hypertrophy in Sprague-Dawley rat NRCM cells assessed as reduction in NPPB mRNA expression level at 50 uM preincubated for 12 hrs followed by phenylephrine stimulation and measured after 48 hrs by qRT-PCR analysis; assay type: functional, cell-based; conditions: time 60.0 hrs
# NRCM [4] = assay: Anticardiac hypertrophic activity in phenylephrine-induced hypertrophy in Sprague-Dawley rat NRCM cells assessed as reduction in inhibition of MYH7 level at 50 uM preincubated for 12 hrs followed by phenylephrine stimulation and measured after 48 hrs by Westernblot analysis; assay type: functional, cell-based; conditions: time 60.0 hrs
# [5] = Cytotoxicity against NRCM cells assessed as reduction in cell viability measured after 48 hrs by CCK-8 method; assay type: toxicity, cell-based; conditions: rat
# NRCM [6] = assay: Anticardiac hypertrophic activity in phenylephrine-induced hypertrophy in Sprague-Dawley rat NRCM cells assessed as attenuation of cardiomyocyte hypertrophy preincubated for 12 hrs followed by phenylephrine stimulation and measured after 48 hrs by 488-I Phalloidin/DAPI staining based fluorescence microscopic analysis; assay type: functional, cell-based; conditions: time 60.0 hrs
Compound,Activity (NRCM [1]),Activity (NRCM [2]),Activity (NRCM [3]),Activity (NRCM [4]),CC50 at 48 h [5] [µM],Activity (NRCM [6])
COC(=O)[C@@H]1C[C@@H]2C[C@@H](C)[C@@H]3OC(=O)C[C@]3(C)[C@H]2C1,Active,Active,Active,Active,> 50,Active
COC(=O)[C@@H]1C[C@@H]2C[C@@H](C)[C@@H]3C(=O)C[C@]3(C)[C@H]2C1,Active,Active,Active,Active,> 50,Active
C[C@@]12CC[C@@](C)(C1=O)[C@H]1C[C@H](C(=O)O)C[C@H]1C2,Active,Active,Active,Active,> 50,Active
